Experimental data taken from US6479531B1, “Gastrin and cholecystokinin receptor ligands” (James Black Foundation Limited, priority 1998, dated 2002).
Structures can show the parent of a compound that is named as a salt.

Key:
CCKB receptor = target: T1, CCKB receptor (Mus musculus, UniProt P56481); test: CCKB receptor radioligand binding assay in mouse cortical membranes; details: [125I]-CCK8(S) 200 pM, 150 min at 21±3°, read-out: CCKB pKi (converted)
T1 construct: The whole brains from male mice (CD1 22-25 g; Charles River) were removed; from tissue; host or cells: cerebral cortex membranes of male CD1 mice
T1 sequence (P56481 1-453): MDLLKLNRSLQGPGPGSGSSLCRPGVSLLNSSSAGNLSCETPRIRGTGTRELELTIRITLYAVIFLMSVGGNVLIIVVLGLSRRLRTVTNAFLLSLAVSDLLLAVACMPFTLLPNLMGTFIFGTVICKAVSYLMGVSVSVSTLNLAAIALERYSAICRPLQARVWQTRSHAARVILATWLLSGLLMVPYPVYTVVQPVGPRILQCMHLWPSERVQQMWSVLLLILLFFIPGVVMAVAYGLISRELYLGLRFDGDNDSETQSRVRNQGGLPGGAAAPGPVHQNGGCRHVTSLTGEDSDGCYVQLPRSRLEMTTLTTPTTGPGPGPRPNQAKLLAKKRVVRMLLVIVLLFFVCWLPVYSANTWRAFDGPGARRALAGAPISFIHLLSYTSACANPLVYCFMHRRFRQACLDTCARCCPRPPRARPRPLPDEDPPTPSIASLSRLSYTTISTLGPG
How it was run: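 Bound radioactivity was gamma-counted after rapid GF/B filtration and cold 50 mM Tris-HCl (pH 7.4) washes. The tissue was cerebral cortex from male CD1 mice, prepared as twice-centrifuged membranes in pH 7.2 HEPES/NaCl/KCl/MgCl2/EDTA buffer with bacitracin at 20 mg/ml original wet weight.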

gastrin receptor = target: T2, gastrin receptor (Rattus norvegicus, UniProt P30553); test: gastrin antagonist activity in immature rat stomach assay (pentagastrin dose-response, acid secretion); details: isolated immature rat stomach, cumulative pentagastrin dose-response curves, read-out: Gastrin pKb (converted)
T2 construct: The stomach was excised and flushed with ca. 1 ml of unbuffered physiological saline solution; from tissue; host or cells: isolated whole stomach of immature rats (ca. 21 days old)
T2 sequence (P30553 1-452): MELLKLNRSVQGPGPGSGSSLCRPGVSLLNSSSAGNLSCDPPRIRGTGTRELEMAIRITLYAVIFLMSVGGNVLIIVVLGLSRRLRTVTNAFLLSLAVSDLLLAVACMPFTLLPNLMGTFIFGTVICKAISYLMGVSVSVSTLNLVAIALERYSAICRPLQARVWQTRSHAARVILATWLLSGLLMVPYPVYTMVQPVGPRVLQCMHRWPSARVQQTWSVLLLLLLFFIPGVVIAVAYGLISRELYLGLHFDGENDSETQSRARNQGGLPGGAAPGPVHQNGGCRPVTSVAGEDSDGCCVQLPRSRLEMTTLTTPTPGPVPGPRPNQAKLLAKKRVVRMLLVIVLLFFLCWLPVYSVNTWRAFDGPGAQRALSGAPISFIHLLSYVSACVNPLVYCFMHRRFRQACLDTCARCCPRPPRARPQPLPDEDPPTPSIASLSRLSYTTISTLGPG
How it was run: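 Isolated, lumen-perfused stomach from immature rats (33-50 g, ca. 21 days) in a 37° organ bath with 3×10^−8 M 5-methylfurmethide, gassed 95% O2/5% CO2. Compound added serosally after 120 min stabilisation; cumulative pentagastrin dose-response curves begun 60 min later, acid secretion followed by perfusate pH.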

Ki (CCKB receptor) | Kb (gastrin receptor) | Compound
2690 nM | 1170 nM | Cc1ccccc1-c1nc(C(=O)Nc2cccc(C(=O)O)c2)c(CCc2ccccc2)[nH]1 [Example 87, 3-[(5-Phenethyl-2-o-tolyl-1H-imidazole-4-carbonyl)-amino]-benzoic Acid]
676 nM | 20 nM | Cc1ccccc1-c1nc(C(=O)Nc2cccc(C(=O)O)c2)c(CCC2CCCCC2)[nH]1 [Example 89, 3-{[5-(2-Cyclohexyl-ethyl)-2-o-tolyl-1H-imidazole-4-carbonyl]-amino}-benzoic Acid]
1020 nM | 158 nM | Cc1ccccc1-c1nc(NC(=O)c2cccc(C(=O)O)c2)c(CCC23CC4CC(CC(C4)C2)C3)[nH]1 [Example 92, N-[5-(2-Adamantan-1-yl-ethyl)-2-o-tolyl-1H-imidazol-4-yl]-isophthalamic Acid]
166 nM | 12.3 nM | Cc1cc(F)ccc1-c1nc(C(=O)Nc2cccc(C(=O)O)c2)c(CCC23CC4CC(CC(C4)C2)C3)[nH]1 [Example 96, 3-{[5-(2-Adamantan-1-yl-ethyl)-2-(4-fluoro-2-methyl-phenyl)-1H-imidazole-4-carbonyl]-amino}-benzoic Acid]
6.76 nM | 501 nM | Cc1ccccc1-c1nc(C(=O)Nc2cccc(CCC(=O)O)c2)c(CCC23CC4CC(CC(C4)C2)C3)[nH]1 [Example 97, 3-(3-{[5-(2-Adamantan-1-yl-ethyl)-2-o-tolyl-1H-imidazole-4-carbonyl]-amino}-phenyl)-propionic Acid Trifluoroacetic Acid Salt]
263 nM | 661 nM | Cc1ccccc1-c1nc(C(=O)NCC(=O)Nc2cccc(C(=O)O)c2)c(CCC23CC4CC(CC(C4)C2)C3)[nH]1 [Example 103]
129 nM | 42.7 nM | Cc1ccccc1-c1nc(C(=O)Nc2cccc(C(=O)O)c2C)c(CCC23CC4CC(CC(C4)C2)C3)[nH]1 [Example 104, 3-{[5-(2-Adamantan-1-yl-ethyl)-2-o-tolyl-1H-imidazole-4-carbonyl]-amino}-2-methyl-benzoic Acid]
46.8 nM | 87.1 nM | Cc1ccccc1-c1nc(C(=O)Nc2ccc(F)c(C(=O)O)c2)c(CCC23CC4CC(CC(C4)C2)C3)[nH]1 [Example 105, 5-{[5-(2-Adamantan-1-yl-ethyl)-2-o-tolyl-1H-imidazole-4-carbonyl]-amino}-2-fluoro-benzoic Acid]
5.89 nM | 6.31 nM | Cc1ccc(NC(=O)c2nc(-c3ccccc3C)[nH]c2CCC23CC4CC(CC(C4)C2)C3)cc1C(=O)O [Example 106, 5-{[5-(2-Adamantan-1-yl-ethyl)-2-o-tolyl-1H-imidazole-4-carbonyl]-amino}-2-methyl-benzoic Acid]
2340 nM | 1550 nM | Cc1nc(C(=O)Nc2cccc(C(=O)O)c2)c(CCC23CC4CC(CC(C4)C2)C3)[nH]1 [Example 108, 3-{[5-(2-Adamantan-1-yl-ethyl)-2-methyl-1H-imidazole-4-carbonyl]-amino}-benzoic Acid]
339 nM | 1050 nM | O=C(O)c1cccc(NC(=O)c2nc(-c3cnc[nH]3)[nH]c2CCC23CC4CC(CC(C4)C2)C3)c1 [Example 110, 3-{[5-(2-Adamantan-1-yl-ethyl)-1H-3′H-[2,4′]biimidazolyl-4-carbonyl]-amino}-benzoic Acid]
91.2 nM | 41.7 nM | CC(C)(C)Cc1nc(C(=O)Nc2cccc(C(=O)O)c2)c(CCC23CC4CC(CC(C4)C2)C3)[nH]1 [Example 111, 3-{[5-(2-Adamantan-1-yl-ethyl)-2-(2,2-dimethyl-propyl)-1H-imidazole-4-carbonyl]-amino}-benzoic Acid]
45.7 nM | 9.33 nM | CCC(CC)c1nc(C(=O)Nc2cccc(C(=O)O)c2)c(CCC23CC4CC(CC(C4)C2)C3)[nH]1 [Example 112, 3-{[5-(2-Adamantan-1-yl-ethyl)-2-(1-ethyl-propyl)-1H-imidazole-4-carbonyl]-amino}-benzoic Acid]
